From US20140371244A1, “METHOD FOR TREATING PROSTATE CANCER BY USE OF PHARMACEUTICAL COMPOSITION CONTAINING A3 ADENOSINE RECEPTOR AGONIST” (priority 2009, published 2014)

Columns and labels:
[1] = tested on: human colorectal cancer HCT 116 cells; test: SRB assay, growth of HCT 116 cells; format: cell-based; settings: 72 hours
Experimental: In order to compare the inhibitory effect of thio-Cl-IB-MECA of the present invention on the inhibition of human colorectal cancer HCT 116 cells with the effects of other A3 adenosine receptor agonists, IB-MECA and Cl-IB-MECA, a sulforhodamine B (SRB) assay was performed.
Specifically, 10 μL of a solution of thio-Cl-IB-MECA in 10% dimethylsulfoxide (DMSO) was loaded in each well of a 96-well plate in triplicate at concentrations of 100, 50, 25 and 12.5 μM, thus making a test plate. Cells were diluted to a density of 5×10^4 cells/ml with 10% FBS-containing RPMI 1640 medium supplemented with antibiotics-antimycotics, and 190 μL of the cell suspension was added to each well so as to reach a total volume of 200 μL and was cultured in a 5% CO2 incubator at 37° C. for 3 days. At the same time, 190 μL of the same cell suspension was loaded into each of 16 wells or more of a fresh 96-well plate containing no sample (thio-Cl-IB-MECA) and was cultured in a 5% CO2 incubator at 37° C. for 30 minutes, thereby determining reference date. After the culture, 50 μL of 50% trichloroacetic acid (TCA) was added to each well, and the cells were fixed by culture at 4° C. for 1 hour. Then, the well plate was washed five times with tap water and dried. 100 μL of a 1% acetic acid solution containing […] sulforhodamine B (SRB) was added to each well to stain the cells, and the well plate was allowed to stand at room temperature for 1 hour. After the well plate has been washed five times with 1% acetic acid and sufficiently dried, 200 μL of 100 mM Tris-base was added to each well, and the bound staining liquid was dissolved and sufficiently shaken in a shaker. Then, the absorbance at 515 nm was measured using an ELISA microplate reader. Based on the measured absorbance, the cell viability of the test group relative to the control group was calculated using equation 2 above. Based on the viability at each concentration, the IC50 value of the test sample was calculated using TableCurve program.
In the cases of IB-MECA or Cl-IB-MECA, the viability of cancer cells was examined in the same manner as the case of thio-Cl-IB-MECA.

[2] = tested on: human colorectal cancer HCT 116 cells; test: Anticancer activity in nude mice transplanted with HCT 116 cells; format: in vivo, nude mice (Balb/c-nu/nu mice)
Experimental: HCT 116 cells were prepared at a concentration of 2×10^6 cells/200 μl (RPMI) and administered subcutaneously into the right frank of 6-week-old female nude mice (Balb/c-nu/nu mice). The tumor size was measured with calipers, and the tumor size reached about 100 mm^3, 20 mice having substantially the same tumor size were divided into a control group and three sample-treated groups. The three sample-treated group were administered orally with IB-MECA at doses of 0.02, 0.2 and 2 mg/kg, respectively, for 21 days. In the control group and the sample-treated groups, the bodyweight was measured once every week, and the tumor size was measured at intervals of 3-4 days. The tumor volume was measured using equation 3 above. In the equation, a represents the longer diameter of the tumor, b represents the shorter diameter of the tumor, and c represents the height of the tumor.
Anticancer activity was measured by an animal test in the same manner as Example 20, except that 6-week-old female nude mice were administered with Cl-IB-MECA in place of IB-MECA as a sample.
Anticancer activity was measured by an animal test in the same manner as Example 20, except that 6-week-old female nude mice were administered with thio-Cl-IB-MECA in place of IB-MECA as a sample.

[3] = tested on: ICR white mice; test: Animal toxicity test, single oral dose; format: in vivo; settings: mouse, in vivo, po
Experimental: In order to examine the toxicities of thio-Cl-IB-MECA and thio-IB-MECA, each of the compounds was administered orally to ICR white mice (n=10, 25 g) at a dose of 1500 mg/kg weight, and the behavioral change and state of the mice were observed.

[4] = tested on: prostate cancer cell line PC-3; test: Anticancer activity in PC-3 tumor-transplanted nude mice; format: in vivo; settings: 2 mg/kg orally every day for 35 days
Experimental: Based on the anticancer activity of thio-Cl-IB-MECA against prostate cancer cells, proven by the in vitro test, the anticancer activity of thio-Cl-IB-MECA was measured by an animal test. The prostate cancer cell line PC-3 was transplanted subcutaneously into nude mice, and when the tumor size reached 150-200 mm^3 after 8 days, the drug thio-Cl-IB-MECA (0.02, 0.2 and 2 mg/kg), thio-IB-MECA (2 mg/kg) or IB-MECA (2 mg/kg) was administered orally every day for 35 days. The tumor size was measured at intervals of 3-5 days. The tumor volume was measured using the following equation 3.
Tumor volume=abc×π/6 [Equation 3]
wherein a represents the longer diameter of the tumor, b represents the shorter diameter of the tumor, and c represents the height of the tumor.

IC50 ([1]; SRB) [µM] | SMILES | growth of HCT 116 cells ([1]; 100, 50, 25 and 12.5 μM) | inhibition rate of tumor growth ([2]; 0.02 mg/kg orally for 21 days) [%] | inhibition rate of tumor growth ([2]; 0.2 mg/kg orally for 21 days) [%] | inhibition rate of tumor growth ([2]; 2 mg/kg orally for 21 days) [%] | side effects (such as a change in bodyweight) during the test period ([2]; 0.02, 0.2 and 2 mg/kg orally for 21 days) | maximum tolerance dose (MTD) [3] | survival and side effects up to 7 days after administration ([3]; 1500 mg/kg) | tumor production inhibitory activity relative to the control group [4]
19.3 | CNC(=O)[C@H]1O[C@@H](n2cnc3c(NCc4cccc(I)c4)nc(Cl)nc32)[C@H](O)[C@@H]1O [Cl-IB-MECA] | concentration-dependently inhibited the growth | 18.2 | 43.8 | 67.3 | survived healthfully without particular side effects | – | – | –
– | CNC(=O)[C@H]1S[C@@H](n2cnc3c(NCc4cccc(I)c4)ncnc32)[C@H](O)[C@@H]1O [thio-IB-MECA, N^6-(3-iodobenzyl)-4′-thioadenosine-5′-N-methyluronamide] | – | – | – | – | – | more than 1500 mg/kg | survived healthfully without particular side effects | about 53.6%
